# Substitutions are numbered along the chain they refer to. No end group written: not given here.
# How the values were obtained:
# DPA10103-DPB10401 = biological target: T1, DPA10103-DPB10401 (Homo sapiens, UniProt P04440+P20036); assay: Competitive MHC class II binding assay, DPA10103-DPB10401
# T1 sequence (P20036 29-260): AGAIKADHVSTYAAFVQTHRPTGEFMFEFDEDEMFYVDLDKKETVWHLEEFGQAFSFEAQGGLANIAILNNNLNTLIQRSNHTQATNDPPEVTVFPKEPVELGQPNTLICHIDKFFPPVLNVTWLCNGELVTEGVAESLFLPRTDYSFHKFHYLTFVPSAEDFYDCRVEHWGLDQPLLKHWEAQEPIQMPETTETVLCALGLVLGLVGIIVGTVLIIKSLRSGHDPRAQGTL
# T1 sequence (P04440 30-258): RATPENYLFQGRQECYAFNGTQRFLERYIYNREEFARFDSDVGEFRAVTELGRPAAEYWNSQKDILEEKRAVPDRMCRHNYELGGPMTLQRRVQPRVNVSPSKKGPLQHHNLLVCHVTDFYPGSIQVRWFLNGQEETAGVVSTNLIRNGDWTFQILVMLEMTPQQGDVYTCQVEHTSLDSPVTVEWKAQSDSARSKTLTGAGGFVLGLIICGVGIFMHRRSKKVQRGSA
# DPA10103-DPB10201 = biological target: T2, DPA10103-DPB10201 (Homo sapiens, UniProt P04440+P20036, A65V/A84D/A85E/K98E); assay: Competitive MHC class II binding assay, DPA10103-DPB10201
# T2 sequence (P20036 29-260): T1 sequence (P20036 29-260)
# T2 sequence (P04440 30-258 A65V/A84D/A85E/K98E): T1 sequence (P04440 30-258) with A36V, A55D, A56E, K69E
# DRB1_0101 = DRB1_0101 (Homo sapiens, UniProt P01903+P01911, A100R/D57E/F55L/F60I/F76Y/I96L/L162R/M171V/P40L/Q125E/R42F/V115G/Y59C); assay: Competitive MHC class II binding assay, DRB1_0101;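 further: competition against a radiolabeled probe peptide (0.1–1 nM) for purified HLA class II protein over 2–4 days, bound counts read after antibody capture, six competitor levels across 100,000-fold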
# DQA10501-DQB10301 = DQA10501-DQB10301 (Homo sapiens, UniProt P01909+P01920); assay: Competitive MHC class II binding assay, DQA10501-DQB10301
# DQA10501-DQB10201 = DQA10501-DQB10201 (Homo sapiens, UniProt P01909+P01920, A45G/A70V/D89A/E106A/E77G/E98D/H199R/L107V/N214S/P84L/P87L/T103K/T109R/T172A/T60S/V78E/V99I/Y58L/Y62S/Y69I/Y79F); assay: Competitive MHC class II binding assay, DQA10501-DQB10201
# DRB3_0202 = DRB3_0202 (Homo sapiens, UniProt P01903+P79483, A212P/D57E/F66Y/L67A/R103Q/R218S/R40L/S89Y/T80R/V86D/Y55F/Y59H); assay: Competitive MHC class II binding assay, DRB3_0202
# DRB1_1201 = DRB1_1201 (Homo sapiens, UniProt P01903+P01911, A100R/A169T/D57E/D86V/F55L/H45Y/K41T/L162R/M171V/P40S/Q125H/Q178H/Q39Y/Q99D/R42G/S66L/T262R/V114A/V67L/W38E/Y59H/Y61H/Y89S); assay: Competitive MHC class II binding assay, DRB1_1201
# DRB1_0701 = DRB1_0701 (Homo sapiens, UniProt P01903+P01911, A100R/A102G/A103Q/D57E/D86V/E43K/F76Y/K127E/L162R/M171V/P40G/Q125H/Q99D/R33Q/R42Y/R54Q/S133A/S66F/T210M/V115G/Y107V/Y59L/Y89S); assay: Competitive MHC class II binding assay, DRB1_0701;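 further: displacement of a radiolabeled reference peptide from purified HLA class II protein, with complex-bound radioactivity counted after 2–4 days of incubation and six concentrations spanning a 100,000-fold range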
# DRB1_0405 = DRB1_0405 (Homo sapiens, UniProt P01903+P01911, A100R/A169T/D86S/F76Y/I96L/K127E/L162R/M171V/N62H/P40V/Q125Y/R42H/S133A/S149N/S66Y/V115G/V209L/W38E); assay: Competitive MHC class II binding assay, DRB1_0405
# DRB1_1302 = DRB1_1302 (Homo sapiens, UniProt P01903+P01911, A100E/A169T/K41T/L162R/M171V/P40S/Q125H/Q178H/Q39Y/Q99D/R42S/S66N/T262R/V115G/W38E/Y61H); assay: Competitive MHC class II binding assay, DRB1_1302;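 further: purified HLA class II protein incubated two to four days with a radiolabeled reference binder and test peptide at six concentrations over a 100,000-fold range, complex-bound radioactivity counted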
# DRB1_0901 = DRB1_0901 (Homo sapiens, UniProt P01903+P01911, A100R/A103E/D57H/D86V/F55Y/F60I/F76Y/I96F/K127E/L162R/M171V/P40D/Q125H/Q99R/R33Q/R42F/S133A/S66N/T210M/V115G/W38K/Y107V/Y59G/Y89S); assay: Competitive MHC class II binding assay, DRB1_0901;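 further: displacement of a radiolabeled probe peptide from purified HLA class II protein, bound counts read after two to four days incubation, six concentrations spanning 100,000-fold, unlabeled probe as reference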
# DRB1_1101 = DRB1_1101 (Homo sapiens, UniProt P01903+P01911, A100R/A169T/A87E/I96F/K41T/L162R/M171V/P40S/Q125H/Q178H/Q39Y/Q99D/R42S/S66Y/T262R/V115G/W38E); assay: Competitive MHC class II binding assay, DRB1_1101
# DRB4_0101 = DRB4_0101 (Homo sapiens, UniProt P01903+P13762, G164S); assay: Competitive MHC class II binding assay, DRB4_0101
# DRB1_1501 = DRB1_1501 (Homo sapiens, UniProt P01903+P01911); assay: Competitive MHC class II binding assay, DRB1_1501
# DRB1_0802 = DRB1_0802 (Homo sapiens, UniProt P01903+P01911, A100R/A103L/A169T/F76Y/H45Y/I96F/K41T/L162R/M171V/P40S/Q125H/Q178H/Q39Y/Q99D/R218S/R42G/S66Y/V115G/W38E); assay: Competitive MHC class II binding assay, DRB1_0802
# DRB5_0101 = DRB5_0101 (Homo sapiens, UniProt P01903+Q30154); assay: Competitive MHC class II binding assay, DRB5_0101
# DQA10102-DQB10602 = assay: Competitive MHC class II binding assay, DQA10102-DQB10602; details: read-out: HLA-DQA10102-DQB10602; positive binding at cutoff 1000 nM
# DRB3_0101 = DRB3_0101 (Homo sapiens, UniProt P01903+P79483); assay: Competitive MHC class II binding assay, DRB3_0101
# DQA10301-DQB10302 = DQA10301-DQB10302 (Homo sapiens, UniProt P01909+P01920, A209T/A45G/C70Q/D89A/DUP78-78/E183D/E77G/F237L/G63E/H199R/I129T/K197E/L178F/L74F/L98V/Q57E/Q76R/S185I/S97I/T217I/T49S/V73L/Y58L); assay: Competitive MHC class II binding assay, DQA10301-DQB10302
# DQA10401-DQB10402 = assay: Competitive MHC class II binding assay, DQA10401-DQB10402
# DQA10101-DQB10501 = DQA10101-DQB10501 (Homo sapiens, UniProt P01909+P01920, A157S/A45G/A70V/C70R/D89V/E106S/E118A/E183D/E77G/F83G/G63E/H151Q/H199R/H252R/H253Q/I129T/I235V/I88M/INS77G/K197Q/L107V/L117V/L119Y/L178F/L71W/L74F/L85Q/L91A/L98M/M46L/N214S/P87R/Q116E/Q256R/Q57E/Q76K/R102G/R240Q/R75S/R78G/S102Y/S185I/S41F/S97I/T103A/T109R/T121G/T122I/T172A/T86R/V148I/V68A/V73E/Y34C/Y58G/Y62H); assay: Competitive MHC class II binding assay, DQA10101-DQB10501; details: positive binding at cutoff 1000 nM; read-out: HLA-DQA10101-DQB10501
# DPA10103-DPB10402 = biological target: T3, DPA10103-DPB10402 (Homo sapiens, UniProt P04440+P20036, A65V/A84D/A85E/L207M); assay: Competitive MHC class II binding assay, DPA10103-DPB10402
# T3 sequence (P20036 29-260): T1 sequence (P20036 29-260)
# T3 sequence (P04440 30-258 A65V/A84D/A85E): T1 sequence (P04440 30-258) with A36V, A55D, A56E
# DRB1_0401 = DRB1_0401 (Homo sapiens, UniProt P01903+P01911, A100K/A169T/F76Y/I96L/K127E/L162R/M171V/N62H/P40V/Q125Y/R42H/S133A/S149N/S66Y/V115G/V209L/W38E); assay: Competitive MHC class II binding assay, DRB1_0401
IC50 (DRB1_0101),IC50 (DQA10501-DQB10301),IC50 (DQA10501-DQB10201),IC50 (DRB3_0202),IC50 (DRB1_0701),IC50 (DRB1_0405),IC50 (DRB1_1302),IC50 (DRB1_0901),IC50 (DRB4_0101),Compound,IC50 (DPA10103-DPB10401),IC50 (DPA10103-DPB10201),further results
,,,,,,,,,CC[C@H](C)[C@H](NC(=O)[C@H](CCSC)NC(=O)[C@H](CCCNC(=N)N)NC(=O)[C@H](Cc1ccccc1)NC(=O)[C@H](CCCCN)NC(=O)[C@@H](NC(=O)[C@H](CCSC)NC(=O)[C@H](CC(N)=O)NC(=O)[C@H](Cc1ccc(O)cc1)NC(=O)[C@@H](NC(=O)[C@@H](N)CCC(=O)O)[C@@H](C)CC)C(C)C)C(=O)N[C@@H](C)C(=O)NCC(=O)N[C@@H](CCC(N)=O)C(=O)N[C@@H](CCC(=O)O)C(=O)O [pep-117],< 1000 nM,< 1000 nM,
< 1000 nM,< 1000 nM,< 1000 nM,< 1000 nM,< 1000 nM,< 1000 nM,< 1000 nM,< 1000 nM,< 1000 nM,CC[C@H](C)[C@H](NC(=O)CNC(=O)[C@@H](N)CCCNC(=N)N)C(=O)N[C@@H](CCC(=O)O)C(=O)N[C@@H](Cc1ccc(O)cc1)C(=O)N[C@H](C(=O)N[C@@H](CCC(N)=O)C(=O)N[C@@H](Cc1c[nH]cn1)C(=O)N[C@@H](CC(N)=O)C(=O)NCC(=O)N[C@H](C(=O)N[C@H](C(=O)N[C@@H](CCC(N)=O)C(=O)N[C@@H](CCC(=O)O)C(=O)N[C@@H](CO)C(=O)N[C@@H](Cc1ccc(O)cc1)C(=O)N[C@@H](Cc1ccc(O)cc1)C(=O)N[C@@H](CCCNC(=N)N)C(=O)N[C@@H](Cc1ccc(O)cc1)C(=O)N[C@H](C(=O)N[C@@H](C)C(=O)N[C@@H](CCCNC(=N)N)C(=O)O)C(C)C)C(C)C)C(C)C)[C@@H](C)CC [pep-123],< 1000 nM,< 1000 nM,IC50 (DRB1_1201): < 1000 nM; IC50 (DRB1_1101): < 1000 nM; IC50 (DRB1_1501): < 1000 nM; IC50 (DRB1_0802): < 1000 nM; IC50 (DRB5_0101): < 1000 nM; IC50 (DQA10102-DQB10602): < 1000 nM
< 1000 nM,< 1000 nM,< 1000 nM,< 1000 nM,< 1000 nM,< 1000 nM,< 1000 nM,< 1000 nM,< 1000 nM,NGYGYFAANIDLMM [pep-011],,,"IC50 (DRB3_0101): < 1000 nM; binding to HLA Class II allele DRB3_0101 (DRB3_0101; as shown in Table 16a): binds to at least the same alleles as peptide 041; binding to HLA Class II allele DQA10501-DQB10201 (DQA10501-DQB10201; as shown in Table 16a): binds to at least the same alleles as peptide 041; binding to HLA Class II allele DRB3_0202 (DRB3_0202; as shown in Table 16a): binds to at least the same alleles as peptide 041; IC50 (DQA10301-DQB10302): < 1000 nM; binding to HLA Class II allele DQA10401-DQB10402 (DQA10401-DQB10402; as shown in Table 16a): binds to at least the same alleles as peptide 041; IC50 (DQA10401-DQB10402; read-out: HLA-DQA10401-DQB10402, positive binding at cutoff 1000 nM): < 1000 nM; binding to HLA Class II allele DRB1_1302 (DRB1_1302; as shown in Table 16a): binds to at least the same alleles as peptide 041; IC50 (DQA10101-DQB10501): < 1000 nM; IC50 (DPA10103-DPB10402): < 1000 nM; IC50 (DRB1_0401): < 1000 nM"

# — patent US20160251403A1, “PEPTIDE COMBINATIONS AND USES THEREOF IN TREATING DUST MITE ALLERGY” (ALK-ABELLO A/S, priority 2013, published 2016)
